According to patent US20110151474A1, “METHOD OF ESTIMATING THE RISK OF EXPRESSION OF ADVERSE DRUG REACTION CAUSED BY THE ADMINISTRATION OF A COMPOUND, WHICH IS EITHER METABOLIZED PER SE BY UGT1A1 ENZYME OR WHOSE METABOLIC INTERMEDIATE IS METABOLIZED BY THE ENZYME” (DAIICHI PURE CHEMICALS CO ., LTD, priority 2000, published 2011):

Tests used:
[1] = Retrospective review of adverse drug reaction (leukopenia, diarrhea, severe toxicity) in patients given irinotecan chemotherapy, correlated with UGT1A1 genotype; format: in vivo, Japanese patients; conditions: for odds ratio of severe toxicity: logistic regression
Source text: The subjects were Japanese patients who had received irinotecan administration in their chemotherapies from July 1994 to June 1999. For confirming the security of the patients, each patient was primarily ensured to have an adequate bone marrow function before the use of irinotecan: a leukocyte count of 3×10^9/liter or more, and a platelet count of 100×10^9/Iiter or more. In addition, the patients who had evidence of watery diarrhea, paralytic ileus, pulmonary interstitial pneumonia or fibrosis, massive ascites or pleural effusion, apparent jaundice, or anamnesis of hypersensitivity to irinotecan were excluded from the irinotecan use. As a result, 118 patients were used as a subject of this Example.
For confirming the adaptability to irinotecan, the complete blood count, platelet count and serum chemistry were assessed at least once a week. And bilirubin levels were always measured.
We retrospectively reviewed the clinical records including patients' characteristics (e.g. age, gender and the like), the dosage and schedule of irinotecan administration, the record of use of other drugs or radiotherapy, and observed adverse drug reaction caused by irinotecan (infusion). We counted the number of days when the patients received granulocyte colony stimulating factors (G-CSFs) or loperamide hydrochloride, the latter of which is commonly prescribed for irinotecan-induced diarrhea in Japan. Prophylactic administration of G-CSF prevented the apparent onset of neutropenia. Since the dose limiting toxicity of irinotecan is known to result in leukopenia and diarrhea, we defined as “severe toxicity” as leukopenia of grade 4 (0.9×10^9/liter) and the diarrhea of grade 3 or worse (grade 3 is for the watery diarrhea for 5 days or more; grade 4, the diarrhea with hemorrhagic or dehydration as classified in accordance with the Japan Society for Cancer Therapy criteria). No other adverse drug reactions were included in this example because they would be influenced by miscellaneous patients' backgrounds. The Serum total bilirubin levels were recorded with the scores just prior to irinotecan administration along with the highest of those after initiation of the therapy.
Blood was sampled from each patient (118 samples) and their genotypes were analyzed after irinotecan administration in each patient. […]
We analyzed the following variant sequences for each genomic DNA (see Fig. I): a two-extra-nucleotide (TA) insertion within the TATA box resulting in the sequence (TA)7TAA at positions −39 to −53, whose type is referred to as UGT1A1 *28; (Monaghan, G., Ryan, M., Seddon, R., Hume, R., and Burchell, B., Lancet, 347: 578-581, 1996, Bosma, P. J. et al., N. Engi. J. Med., 333: 1171-1175, 1995); a transition at codon 71 in exon I (from (G) to (A) at +211 locating in the downstream region from the initial site of the transcription) that changes glycine to arginine (represented by G71 R, whose type is referred to as UGT1A1*6); a transversion at codon 229 in exon I that alters proline to glutamine (represented by P229Q, whose type is referred to as UGT1A1*27); a trarisversion at codon 367 from (C) to (G) at position +1099 in exon 4 that converts arginine to glycine (represented by R367G, whose type is referred to as UGT1A1*29); and a transversion (+1456, T to G) at codon 486 in exon 5 that transforms tyrosine (Y) into aspartic acid (D) (represented by Y486D, whose type is referred to as UGTIA1*7). […]

[2] = out of 1245 patients during period of clinical trials; cited from earlier work

## CCc1c2c(nc3ccc(OC(=O)N4CCC(N5CCCCC5)CC4)cc13)-c1cc3c(c(=O)n1C2)COC(=O)[C@]3(O)CC [irinotecan]
[1]; UGT1A1*6, 95% CI 0.15-1.61, P>0.2
  odds ratio of severe toxicity: 0.55
[1]; all patients heterozygous for UGT1A1*27
  patients who experienced severe toxicity: 3 patients
[1]; genotype heterozygous or homozygous for UGT1A1*28, 95% CI 1.98-13.96, P<0.001
  odds ratio of severe toxicity: 5.21
[1]; of 118 patients given irinotecan, 92 did not
  patients who experienced severe toxicity (leukopenia grade 4 and/or diarrhea grade 3 or worse): 26 patients
[1]; possession of UGT1A1*28, multiple logistic regression with gender and chemotherapy regimen (FIG. 5)
  increase of severe toxicity of irinotecan: 7 fold
[2]
  deaths attributed to adverse drug reactions: 55 patients
